The results in this text go back to patent publication US7572910B2, “Pyridazinone aldose reductase inhibitors” (Pfizer, Inc., priority 2004, dated 2009).

A word on the melting point: it is the temperature of the solid-liquid transition.

`Cn1c(S(=O)(=O)c2ccc(=O)[nH]n2)cc2ccccc21` [Example 40, 6-(N-Methylindole-2-sulfonyl)-2H-pyridazin-3-one] showed a melting point of 233 to 235 °C. The result for `O=c1ccc(S(=O)(=O)c2oc3ccccc3c2O)n[nH]1` [Example 16, 6-(3-Hydroxy-benzofuran-2-sulfonyl)-2H-pyridazin-3-one] reads 186 to 189 °C; that for `O=c1ccc(S(=O)(=O)c2[nH]c3ccccc3c2Cl)n[nH]1` [Example 36, 6-(3-Chloro-indole-2-sulfonyl)-2H-pyridazin-3-one], 250 °C.
